One data set relates to 786-O/luc cells. In words: in vitro uptake of [F-18]-D-FMT into 786-O/luc cells. In kind it is cell-based, human. Particulars: after 30 min.
In the next data set the test system is 786-O bone metastases. In words: PET/CT imaging in 786-O/luc bone metastasis mouse model. Particulars: for accumulation in bone metastases / osteolytic lesions: [F-18]-fluoride day 51, [F-18]-D-FMT day 65. The procedure:
786-O/luc cells and the MDA-MB231SA/luc cells were harvested from subconfluent cell culture flasks and resuspended in PBS (Biochrom AG) to a final concentration of 5×10^5 cells/100 μl. For intracardiac inoculations, 5-week-old female athymic nude mice (Harlan-Winkelmann GmbH, Borchen, Germany) were anesthetized with an intraperitoneal injection of 5% Rompun (Bayer HealthCare AG, Leverkusen, Germany)/10% Ketavet (Pfizer, Karlsruhe, Germany) in 0.9% NaCl at a dose of 0.1 ml/10 g body weight. Using an insulin syringe (BD Micro-Fine+Demi U-100, Becton Dickinson GmbH, Heidelberg, Germany), 5×10^5 786-O/luc cells in 100 μl PBS were inoculated into the left cardiac ventricle (i.c.) of anesthetized mice. Experiments were approved by the governmental review committee on animal care.
10 to 12 MBq [F-18]-fluoride or [F-18]-D-FMT were injected i.v. into the tail vein. 60 min after injection anesthesia was induced by isoflurane/O2 and twenty-minute micro-PET/computed tomography (CT) scans were obtained using an Inveon micro PET/CT scanner (Siemens).
51 days after the inoculation of the 786-O/luc cells into the mice, PET/CT imaging was performed with [F-18]-fluoride (FIG. 1 right side). […] The same mouse was imaged 2 weeks later (day 65) with [F-18]-D-FMT (FIG. 1 left side).

The test system of data set [1] is MDA-MB231SA bone metastases. Put plainly: PET/CT imaging in MDA-MB231SA/luc bone metastasis mouse model. In kind it is in vivo. Particulars: PET/CT 25 days after inoculation. The source says: To conclude, [F-18]-D-FMT is useful for the detection of bone metastases.
For data set [2], the system named is inflammatory muscle tissue. Particulars: cited from earlier work.
The conditions of data set [3]: in vivo; cited from earlier work.

Where two headings read alike, the source gives them in different places.

The values that follow come from US20130028838A1, “F18-TYROSINE DERIVATIVES FOR IMAGING BONE METASTASES” (PIRAMAL IMAGING SA, priority 2010, published 2013).

`N[C@H](Cc1ccc(OC[18F])cc1)C(=O)O` [[F-18]-D-FMT, (R)-2-amino-3-(4[F-18]fluoromethoxy-phenyl)-propionic acid]: the “uptake into the 786-O/luc cells” value with 786-O/luc cells worked out at 12.8 % applied dose/10^6 cells. In addition, in the data set with 786-O bone metastases, the “uptake into regenerating and remineralizing bone / detection of osteoblastic activity” value is “not detected”; the “accumulation in bone metastases / osteolytic lesions” value is “accumulated in all bone metastases imaged by [F-18]-fluoride”. The “uptake into the healthy bone” value with 786-O bone metastases (60 min after i.v. injection) was “no uptake”. Also, the “uptake into the bone metastases” value in data set [1] is listed as “showed uptake into the bone metastases”. In data set [2] (Turpentine-induced inflammation), the “uptake in inflammatory muscle tissue” value is on record as “no uptake”.
As to “18F-fluorodeoxyglucose [FDG, reference compound]”, the “uptake in inflammatory muscle tissue” value in data set [2] (in vivo) is given as “taken up”.
Take `[18FH]` [[F-18]-fluoride, reference compound]: in the data set with 786-O bone metastases, the “uptake into regenerating and remineralizing bone / detection of osteoblastic activity” value is reported as “unspecific uptake”; the “accumulation in bone metastases / osteolytic lesions” value was “high accumulation in multiple osteolytic lesions”. Further, the “blood-borne tracer carried in red cells” value in data set [3] is given as “approximately 30%”.
